Assay: Multi-component pharmacokinetic study of GQD, GQD-GC and single herb extracts in rats (plasma, LC/MS/MS)
Format: in vivo, Sprague-Dawley rats
Conditions: male, Sprague-Dawley, rat, in vivo, po, 2.36 g/kg
Description: Male Sprague-Dawley rats (220–250 g) were used for PK study, and the details were described in Supplemental Data. All procedures were in accordance with the National Institutes of Health Guide for the Care and Use of Laboratory Animals.
For PK study of GQD and its component herbs, rats were randomly divided into six groups (n = 10 for each group) before oral administration.
All blood samples were immediately centrifuged at 6,000 rpm (4°C) for 20 min to obtain plasma. The plasma samples were stored at −80°C.
A Finnigan TSQ Quantum triple quadrupole mass spectrometer was connected to a Surveyor HPLC via ESI interface (ThermoFisher). High purity nitrogen was used as the sheath and auxiliary gas; Ultra-high purity argon was used as the collision gas (1.5 mTorr). Q1 and Q3 quadrupoles were set at unit resolution. […] The column temperature was 40°C. The mobile phase consisted of acetonitrile containing 2% (v/v) methanol (A) and water containing 0.1% (v/v) formic acid (B). […] An aliquot of 5 μL was injected for analysis. UV spectra were obtained by scanning from 200 to 400 nm. The mass spectrometer was operated in the (+)-ESI mode. The optimized parameters were as follows: sheath gas (N2), 50 arb; auxiliary gas (N2), 5 arb; spray voltage, 4.0 kV; capillary temperature, 330°C; collision energy, see Table S1. Analytes were detected in the selected reaction monitoring (SRM) mode. Data were processed by Xcalibur 2.0.7 software (ThermoFisher).
LC/MS/MS calibration and quantitation data were processed with Xcalibur 2.0.7 software (ThermoFisher). The maximal plasma concentrations (Cmax) and their time of occurrence (Tmax) were obtained directly from the measured data. Other pharmacokinetic parameters were calculated by non-compartment or compartment models using WinNonlin® software (v6.1, Pharsight). Unless otherwise stated, results were expressed as the mean ± SD. Statistical significance in differences of the means was determined by Student's t–test, with a significance level of P < 0.05.
Herbal materials and extracts.
The four component herbs, Puerariae Lobatae Radix (Ge-Gen, GG), Scutellariae Radix (Huang-Qin, HQ), Coptidis Rhizoma (Huang-Lian, HL), and Glycyrrhizae Radix et Rhizoma Praeparata cum Melle (Gan-Cao, GC) were purchased from Tianheng Pharmacy. GQD was prepared by decocting the four component herbs […]
pre-extraction of Ge-Gen using 200 mL of water for 0.5 h. The decoctions were combined, filtered, and concentrated in vacuum at 50 °C. GQD-GC was prepared using the same procedure, except that Gan-Cao was removed from the formula. Final concentration of the GQD-GC extract was equivalent to 1.0 g of the crude drugs per mL. For single herb extracts, the herbs were decocted in 8-fold volume of water for […]
Final concentrations of the extracts were 1.0 g/mL for Ge-Gen, and 0.5 g/mL for Huang-Qin, Huang-Lian and […]
For pharmacokinetic study, Male Sprague-Dawley rats (220-250 g) were obtained from the Laboratory Animal Center of Peking University Health Science Center. The […]
The rats had free access to tap water and soy-free custom diet (Ke’ao Xieli Co.). All procedures were in accordance with the National Institutes of Health Guide for the Care and Use of Laboratory Animals […]
Experimental details for the PK study
1. Preparation of internal standard solution, calibration standard solutions, and quality control solutions […]
internal standard solution. Reference standard compounds were dissolved in the internal standard solution to prepare individual stock solutions (1.0 mg/mL). These […]
each compound. The standard solution was then serially diluted to obtain calibration […]
Quality control stock solutions were prepared at three concentration levels as high QC (HQC), middle QC (MQC), and low QC (LQC), based on linear ranges of the analytes.
2.1. Sample preparation for pharmacokinetic study
The calibration standard and quality control solutions for pharmacokinetic study were […]

| Cmax | Tmax | half-life | SMILES |
| --- | --- | --- | --- |
| 8.98 ± 2.49 ng/mL | 3.7 ± 1.41 h | 138 ± 407 min | CC1(C(=O)O)CCC2(C)CCC3(C)C(=CC(=O)C4C5(C)CCC(OC6OC(C(=O)O)C(O)C(O)C6OC6OC(C(=O)O)C(O)C(O)C6O)C(C)(CO)C5CCC43C)C2C1 (stereo not shown) [Compound 35, licorice saponin G2] |

Same assay, conditions: male, Sprague-Dawley, rat, in vivo, po, 2.36 g/kg, AUClast

| AUC(0-t) | SMILES |
| --- | --- |
| 81 ± 27.7 ng·h/mL | CC1(C(=O)O)CCC2(C)CCC3(C)C(=CC(=O)C4C5(C)CCC(OC6OC(C(=O)O)C(O)C(O)C6OC6OC(C(=O)O)C(O)C(O)C6O)C(C)(CO)C5CCC43C)C2C1 (stereo not shown) [Compound 35, licorice saponin G2] |

Same assay, conditions: male, Sprague-Dawley, rat, in vivo, po, 18.9 g/kg

| Cmax | Tmax | half-life | SMILES |
| --- | --- | --- | --- |
| 10.3 ± 6.38 ng/mL | 3.89 ± 1.41 h | 152 ± 8.4 min | CC1(C(=O)O)CCC2(C)CCC3(C)C(=CC(=O)C4C5(C)CCC(OC6OC(C(=O)O)C(O)C(O)C6OC6OC(C(=O)O)C(O)C(O)C6O)C(C)(CO)C5CCC43C)C2C1 (stereo not shown) [Compound 35, licorice saponin G2] |

Same assay, conditions: male, Sprague-Dawley, rat, in vivo, po, 18.9 g/kg, AUClast

| AUC(0-t) | SMILES |
| --- | --- |
| 102 ± 53.3 ng·h/mL | CC1(C(=O)O)CCC2(C)CCC3(C)C(=CC(=O)C4C5(C)CCC(OC6OC(C(=O)O)C(O)C(O)C6OC6OC(C(=O)O)C(O)C(O)C6O)C(C)(CO)C5CCC43C)C2C1 (stereo not shown) [Compound 35, licorice saponin G2] |

Same assay, conditions: male, Sprague-Dawley, rat, plasma, po, 2.36 g/kg, GC (Gan-Cao) group: rats, oral extract 2.36 g/kg, plasma; read-out: AUClast

| AUC(0-t) | SMILES |
| --- | --- |
| 1.28 ± 0.03 ng·h/mL | O=C(/C=C/c1ccc(O)cc1)c1ccc(O)cc1O [Compound 28, isoliquiritigenin] |

Same assay, conditions: male, Sprague-Dawley, rat, plasma, po, 18.9 g/kg, GQD group: rats, oral GQD extract 18.9 g/kg, plasma; read-out: AUClast

| AUC(0-t) | SMILES |
| --- | --- |
| 39.2 ± 8.9 ng·h/mL | O=C(/C=C/c1ccc(O)cc1)c1ccc(O)cc1O [Compound 28, isoliquiritigenin] |

Same assay, conditions: male, Sprague-Dawley, rat; GC (Gan-Cao) group: rats, oral extract 2.36 g/kg, plasma; read-out: Cmax

| Cmax | SMILES |
| --- | --- |
| 1.16 ± 0.52 ng/mL | O=C(/C=C/c1ccc(O)cc1)c1ccc(O)cc1O [Compound 28, isoliquiritigenin] |

Same assay, conditions: male, Sprague-Dawley, rat; GC (Gan-Cao) group: rats, oral extract 2.36 g/kg, plasma; read-out: T1/2 (converted)

| half-life | SMILES |
| --- | --- |
| 16.8 ± 4.8 min | O=C(/C=C/c1ccc(O)cc1)c1ccc(O)cc1O [Compound 28, isoliquiritigenin] |

Same assay, conditions: male, Sprague-Dawley, rat; GC (Gan-Cao) group: rats, oral extract 2.36 g/kg, plasma; read-out: Tmax

| Tmax | SMILES |
| --- | --- |
| 0.41 ± 0.47 h | O=C(/C=C/c1ccc(O)cc1)c1ccc(O)cc1O [Compound 28, isoliquiritigenin] |

Same assay, conditions: male, Sprague-Dawley, rat; GQD group: rats, oral GQD extract 18.9 g/kg, plasma; read-out: Cmax

| Cmax | SMILES |
| --- | --- |
| 2.81 ± 0.87 ng/mL | O=C(/C=C/c1ccc(O)cc1)c1ccc(O)cc1O [Compound 28, isoliquiritigenin] |

Same assay, conditions: male, Sprague-Dawley, rat; GQD group: rats, oral GQD extract 18.9 g/kg, plasma; read-out: T1/2 (converted)

| half-life | SMILES |
| --- | --- |
| 213 ± 4.8 min | O=C(/C=C/c1ccc(O)cc1)c1ccc(O)cc1O [Compound 28, isoliquiritigenin] |

Same assay, conditions: male, Sprague-Dawley, rat; GQD group: rats, oral GQD extract 18.9 g/kg, plasma; read-out: Tmax

| Tmax | SMILES |
| --- | --- |
| 5.33 ± 0.89 h | O=C(/C=C/c1ccc(O)cc1)c1ccc(O)cc1O [Compound 28, isoliquiritigenin] |

Reference: article PMC6018403 (Frontiers in Pharmacology, 2018)
